Assay results from US20240287172A1, “PROTEIN BINDERS TO IRHOM2 EPITOPES” (SCIRHOM GMBH, priority 2019, published 2024).

Columns and labels:
[1] = test system: LPS-induced release of endogenous TNFα from PBMCs from patients suffering from rheumatoid arthritis; assay: ELISA-based TNFα release assay, LPS-induced, PBMCs from RA-patients; assay type: cell-based; settings: PBMC; LPS 1 ng/ml, 1.5 hours; chimeric antibodies (CHO) and human IgG at 1 μg/ml; Batimastat at 10 μM
Method: (§1) In brief, on day 1, Nunc black MaxiSorp® 96-well plates (Thermo Fisher Scientific, USA) were coated overnight with 100 μl per well of mouse anti-human TNFα capture antibody (provided as part of the DuoSet ELISA kit) at 4 μg/ml TBS at 4° C. On day 2, the capture antibody solution was removed and MaxiSorp® plates were blocked with 300 μl per well of TBS, 1% BSA at room temperature for 3 hours. Meanwhile, 20,000 PBMC from patients suffering from rheumatoid arthritis (STEMCELL Technologies, Canada) cells in 80 μl of normal growth medium were seeded in each well of Greiner CELLSTAR V-bottom 96-well plates (Thermo Fisher Scientific, USA) and pre-incubated with 20 μl per well of standard growth medium supplemented with Batimastat (BB94, Abcam, UK) at 50 μM as positive control (for a final concentration of 10 μM in the resulting 100 μl sample volume), human IgG antibody (Thermo Fisher Scientific, USA) at 5 μg/ml as isotype control (for a final concentration of 1 μg/ml in the resulting 100 μl sample volume) or antibodies of the invention at 5 μg/ml (for a final concentration of 1 μg/ml in the resulting 100 μl sample volume) at 37° C., 5% CO2 for 30 minutes. […] Using an infinite M1000 (Tecan Group, Switzerland) microplate reader, the fluorescence of each well was collected at an excitation wavelength of 435 nm and an emission wavelength of 555 nm.

[2] = test system: PMA-induced release of endogenous HB-EGF from PBMCs from patients suffering from rheumatoid arthritis; assay: ELISA-based HB-EGF release assay, PMA-induced, PBMCs from RA-patients; assay type: cell-based; settings: PBMC; PMA 25 ng/ml, 6 hours; chimeric antibodies (CHO) and human IgG at 1 μg/ml; Batimastat at 10 μM
Method: as §1, with “well of rat anti-human HB-EGF” for “well of mouse anti-human TNFα”, “rat anti-human HB-EGF capture antibody” for “mouse anti-human TNFα capture antibody”, “kit) at 2 μg/ml TBS” for “kit) at 4 μg/ml TBS”, “hours. Meanwhile, 80,000 PBMC from” for “hours. Meanwhile, 20,000 PBMC from”

CNC(=O)[C@H](Cc1ccccc1)NC(=O)[C@H](CC(C)C)[C@H](CSc1cccs1)C(=O)NO [Batimastat] gave an inhibition at 10 µM [1] of 99.9% and an inhibition at 10 µM [2] of 102%.
